Measured values published in PubChem BioAssay (NCI).
Where “and” joins values, the source holds several entries; their conditions need not be identical. Equal values may be shown once.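 Results reflect a 48-hour exposure of cells in 96-well plates to compound at five concentrations. The concentration for 50% growth inhibition is given as GI50. The concentration for full growth arrest is given as TGI.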

Tests used:
Assay in all cases: NCI-60 cell line screen, 48 h
A498 renal = system: A498 renal
UO-31 renal = system: UO-31 renal
A549 NSCLC = system: A549 NSCLC
OVCAR-3 ovarian = system: OVCAR-3 ovarian
RPMI-8226 leukemia = system: RPMI-8226 leukemia
SNB-19 CNS = system: SNB-19 CNS
BT-549 breast = system: BT-549 breast
SK-MEL-5 melanoma = system: SK-MEL-5 melanoma
OVCAR-4 ovarian = system: OVCAR-4 ovarian
SK-MEL-2 melanoma = system: SK-MEL-2 melanoma

Structure (SMILES)	GI50 (A498 renal)	TGI (A498 renal)	GI50 (UO-31 renal)	TGI (UO-31 renal)	GI50 (A549 NSCLC)	TGI (A549 NSCLC)	GI50 (OVCAR-3 ovarian)	TGI (OVCAR-3 ovarian)	GI50 (RPMI-8226 leukemia)	TGI (RPMI-8226 leukemia)	GI50 (SNB-19 CNS)	TGI (SNB-19 CNS) [µM]	GI50 (BT-549 breast)	TGI (BT-549 breast)	GI50 (SK-MEL-5 melanoma)	TGI (SK-MEL-5 melanoma)	GI50 (OVCAR-4 ovarian)	TGI (OVCAR-4 ovarian)	GI50 (SK-MEL-2 melanoma)	TGI (SK-MEL-2 melanoma)
Oc1c(CN2CCOCC2)cc(COCc2ccccc2)c2cccnc12	16.5 µM	> 100 µM	0.351 µM	9.36 µM	4.22 µM	64 µM	2.49 µM	> 100 µM	4.06 µM	> 100 µM	4.28 µM	> 100	3.19 µM	81.8 µM	2.03 µM	5.43 µM	1.97 µM	> 100 µM	3.22 µM	59.1 µM
Cc1cc(S(=O)(=O)Nc2nc3cc(Cl)ccc3o2)c(SCc2ccccc2)cc1Cl	18.8 µM	35.5 µM	22.4 µM	48.5 µM	23.8 µM	59.9 µM	22 µM	45.6 µM	20.3 µM	66.2 µM	21.2 µM	46.9	19.3 µM	38.7 µM	17.1 µM	32 µM	25.6 µM	74.7 µM	20.5 µM	43.1 µM
O=C(CCl)Nc1cc(O)c2c(c1)C(=O)c1cccc(O)c1C2=O	3.17 µM	36.6 µM	1.39 µM	2.71 µM	7.44 µM	48.5 µM	1.23 µM	2.49 µM	2.17 µM	6.39 µM	1.87 µM	4.15	1.24 µM	3.3 µM	0.549 µM	1.61 µM	1.96 µM	7.23 µM	1.49 µM	3.93 µM
CC(C)(C)C(=O)OCc1nc2cc3c(cc2c(=O)[nH]1)CCC3=O	> 100 µM	> 100 µM	> 100 µM	> 100 µM	> 100 µM	> 100 µM	> 100 µM	> 100 µM	> 100 µM	> 100 µM	> 100 µM	> 100	> 100 µM	> 100 µM	> 100 µM	> 100 µM	> 100 µM	> 100 µM	> 100 µM	> 100 µM
O=[N+]([O-])c1cc(F)c2cccnc2c1O	6.84 µM	42.4 µM	2.34 µM	18.2 µM	6.94 µM	> 100 µM	3.93 µM	> 100 µM	4.05 µM	24.3 µM	9.24 µM	> 100	19 µM	> 100 µM	16.5 µM	73.7 µM	6.63 µM	65.5 µM	10.1 µM	94.4 µM
c1ccc2nc(OCCN3CC3)ccc2c1	14.2 µM	30 µM	6.39 µM	25 µM	14.4 µM	30.7 µM	6.29 µM	22.1 µM	3.94 µM	26.7 µM	15.7 µM	43.6	20.7 µM	37.7 µM	12.9 µM	26.8 µM	10.3 µM	25.3 µM	13.5 µM	31.6 µM
O=c1c2c3c(sc2n2c(-c4ccc(Br)cc4)nnc2n1Cc1ccccc1)CCCC3	10.9 µM	22.9 µM	11.3 µM	41.1 µM	12.4 µM	24.8 µM	6.24 µM	20 µM	3.85 µM	25.4 µM	8.12 µM	20.7	6.04 µM	19.8 µM	3.8 µM	14.3 µM	6.03 µM	22.4 µM	8.58 µM	21.2 µM
CCCCCCNC(=O)Oc1ccc(/C(=C(\C)c2ccccc2)c2ccc(OCCN(CC)CC)cc2)cc1	6.93 µM	13.6 µM	1.51 µM	6.09 µM	5.11 µM	11.4 µM	4.73 µM	11.6 µM	2.32 µM	9.71 µM	4.89 µM	11.1	6.05 µM	12.5 µM	3.01 µM	9.26 µM	5.46 µM	11.9 µM	7.5 µM	14.8 µM
Cc1cc(O)cc2c1c(=O)c1ccccc1n2C	–	> 100 µM	–	> 100 µM	–	> 100 µM	–	> 100 µM	–	> 100 µM	–	> 100	–	> 100 µM	–	> 100 µM	–	> 100 µM	–	> 100 µM
CC(=O)N1CCN(CCOc2ccc(C3CCN(C4=Nn5c(nnc5C(F)(F)F)CC4)CC3)cc2)CC1	12.8 µM	> 89.8 µM	4.75 µM	> 100 µM	41.4 µM	> 100 µM	20.8 µM	> 100 µM	4.74 µM	79.7 µM	22.4 µM	> 100	26.2 µM	> 100 µM	6.58 µM	30.8 µM	8.55 µM	> 100 µM	33.7 µM	> 100 µM
CCOC(=O)c1ccccc1-c1c2ccc(=[N+](C)C)cc-2oc2cc(N(C)C)ccc12	0.013 µM	1.11 µM	2.18 µM	8.1 µM	0.256 µM	> 38.7 µM	0.209 µM	13.4 µM	0.082 µM	4.96 µM	0.103 µM	16.7	0.178 µM	2.77 µM	0.205 µM	0.632 µM	0.167 µM	> 41.5 µM	0.579 µM	4.1 µM
O=[As]c1ccc(C(=O)c2ccc(Oc3ccccc3)cc2)cc1 (centres undefined)	0.141 µM	0.295 µM	0.0695 µM	0.208 µM	0.0465 µM	0.172 µM	0.0243 µM	0.0608 µM	0.0267 µM	0.105 µM	0.0651 µM	0.187	0.135 µM	0.278 µM	0.0539 µM	0.174 µM	0.0469 µM	0.171 µM	0.118 µM	0.287 µM
CCCCCc1c(C)[nH]c(/C=C2\N=C(c3ccc[nH]3)C=C2OCc2ccccc2)c1C	0.0411 µM and 0.0298 µM	0.74 µM and 0.219 µM	0.103 µM and 0.0318 µM	0.282 µM and 0.128 µM	0.0328 µM and 0.0283 µM	0.381 µM and 0.0957 µM	0.0447 µM and 0.0264 µM	0.463 µM and 0.139 µM	0.0343 µM and 0.0301 µM	0.235 µM and 0.317 µM	0.21 µM and 0.112 µM	1.96	0.234 µM and 0.119 µM	1.78 µM and 1.18 µM	0.0358 µM and 0.0186 µM	0.138 µM and 0.0471 µM	0.0463 µM and 0.0163 µM	1.29 µM and 1.24 µM	0.0297 µM and 0.0205 µM	0.0753 µM and 0.0609 µM
COc1cc(/C=N\O)nc(-c2ccccn2)c1	–	9.22 µM	–	3.13 µM	–	> 100 µM	–	> 100 µM	–	> 76.8 µM	–	> 100	–	> 100 µM	–	–	–	> 100 µM	–	> 100 µM
COc1cccc(C2=C(c3cn(C)c4cccc(OC)c34)C(=O)NC2=O)c1	4.9 µM	> 25 µM	17.9 µM	> 25 µM	11.2 µM	> 25 µM	7.74 µM	> 25 µM	9.09 µM	> 24.1 µM	> 25 µM	> 25	12.9 µM	> 25 µM	7.36 µM	> 25 µM	> 21.3 µM	> 25 µM	7.75 µM	> 25 µM
CO[C@H](C(=O)O)[C@@H]1Cc2cc3cc(OC4CC(OC5CC(O)C(O)C(C)O5)C(O)C(C)O4)c(C)c(O)c3c(O)c2C(=O)[C@H]1OC1CC(OC2CC(OC3CC(C)(O)C(O)C(C)O3)C(O)C(C)O2)C(O)C(C)O1 (some centres undefined)	0.135 µM	0.773 µM	0.637 µM	5.33 µM	0.257 µM	> 32.5 µM	0.28 µM	2.04 µM	0.16 µM	2.23 µM	0.201 µM	> 32.5	0.136 µM	1.13 µM	0.159 µM	0.868 µM	0.607 µM	> 32.5 µM	0.335 µM	1.56 µM
O=C(Nc1ccc(I)cc1F)c1cc(I)ccc1O	0.324 µM	1.24 µM	0.535 µM	2.22 µM	1.15 µM	> 100 µM	0.714 µM	> 100 µM	0.375 µM	1.64 µM	0.664 µM	> 100	0.548 µM	2.48 µM	0.285 µM	0.807 µM	0.798 µM	> 100 µM	0.319 µM	1.59 µM
CCOC(=S)SCN1C(=O)c2ccccc2S1(=O)=O	19.8 µM	42 µM	14.3 µM	29.4 µM	23.9 µM	58.3 µM	0.0358 µM	17.3 µM	12.8 µM	38.2 µM	28.7 µM	88.8	16 µM	38.4 µM	11.4 µM	24.4 µM	1.67 µM	3.87 µM	44.5 µM	> 100 µM
C=CCCC(=O)N1C=CC(=O)[C@H](O)[C@@H]1/C=C/c1ccccc1	> 32.5 µM	> 32.5 µM	4.25 µM	> 32.5 µM	18.2 µM	> 32.5 µM	6.13 µM	> 32.5 µM	15.6 µM	> 32.5 µM	17.2 µM	> 32.5	11 µM	> 32.5 µM	3.93 µM	12.3 µM	5.67 µM	> 32.5 µM	> 32.5 µM	> 32.5 µM
Nc1c(C(=O)Nc2cccc(Br)c2)sc2nc3c(cc12)C(O)CCC3 (centres undefined)	0.207 µM	3.91 µM	0.685 µM	40.3 µM	0.494 µM	22 µM	0.32 µM	3.08 µM	0.404 µM	23.5 µM	2.52 µM	53.9	0.972 µM	> 75.3 µM	0.455 µM	> 45.4 µM	3.14 µM	66 µM	0.484 µM	36.8 µM
O=C(Nc1cc(-c2cccnc2)nc(NCCCN2CCOCC2)n1)c1cc(Br)cc(C(F)(F)F)c1	3.43 µM	13.4 µM	1.4 µM	3.39 µM	10.1 µM	22.2 µM	3.7 µM	12.8 µM	3.15 µM	9.69 µM	2.5 µM	5.75	3.27 µM	15 µM	1.64 µM	3.02 µM	3.26 µM	14.5 µM	4.52 µM	17 µM
OC(COc1cccc2ccccc12)CN1CCN(c2ccccc2Cl)CC1 (centres undefined)	12.3 µM	24.9 µM	4.17 µM	18.7 µM	18.2 µM	35.4 µM	13.9 µM	27.6 µM	13.2 µM	38.3 µM	14.5 µM	30.2	12.9 µM	26.3 µM	15.2 µM	28.9 µM	12.6 µM	25.8 µM	15.4 µM	29.5 µM
CCOC(=O)Cc1csc(NC(=O)COC(=O)c2ccc(OC)cc2)n1	> 100 µM	> 100 µM	5.76 µM	11.1 µM	> 100 µM	> 100 µM	22.4 µM	46.3 µM	12.5 µM	33.5 µM	> 100 µM	> 100	24.7 µM	66.3 µM	> 100 µM	> 100 µM	98.2 µM	> 100 µM	> 100 µM	> 100 µM
CC1(C)[C@@H](OC(N)=O)C=C[C@]2(C=O)[C@H]3CC[C@]4(C)[C@@H](c5ccc(=O)oc5)[C@@H](Cl)C[C@]4(O)C3=CC[C@@H]12	0.00594 µM	0.0177 µM	0.00524 µM	0.0124 µM	0.00361 µM	0.00752 µM	0.00329 µM	0.00828 µM	0.00719 µM	0.023 µM	0.00782 µM	0.0253	0.00491 µM	0.0106 µM	0.00458 µM	0.00903 µM	0.004 µM	0.0121 µM	0.00679 µM	0.0173 µM
O=C(NCCCCOCC#Cc1ccccc1C#CCS(=O)(=O)c1ccccc1)c1cc2ccccc2[nH]1	25.8 µM	> 50 µM	4.05 µM	11.8 µM	16.8 µM	> 50 µM	14 µM	> 35 µM	2.78 µM	13.2 µM	15.1 µM	> 50	8.38 µM	> 27.1 µM	7.86 µM	16.3 µM	5.56 µM	22.7 µM	20.9 µM	> 50 µM
